The values that follow come from patent US20080234262A1 (Wyeth, priority 2007, published 2008).

The term IC50 denotes the concentration needed to halve the response being measured.

Molecules are shown by their SMILES.

One experiment deals with breast line MDA468. The experiment is described as follows: In vitro cell culture growth assay (MTS), MDA468. It is filed as cell-based, human. Particulars: MDA468 cells, three days after drug treatment. In outline:
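Steps: plate cells; add inhibitors the next day; incubate 3 days; add MTS dye, which viable cells convert metabolically; measure absorbance at 490 nm; calculate percent of control growth relative to vehicle-treated cells in the same plate.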

In a further experiment the test system is prostate line LNCap. The experiment is described as follows: In vitro cell culture growth assay (MTS), LNCap.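 Further: viable cell density read by absorbance at 490 nm, growth expressed as percent of vehicle-treated cells on the same plate.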 Particulars: LNCap cells, three days after drug treatment. Type of experiment: cell-based, human.
In the next experiment the target is PI3K (Homo sapiens, UniProt P42336). The experiment is described as follows: Fluorescence polarization assay for PI3K.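 Further: PI3K kinase reaction on PIP2 with ATP, 30-60 min, product sensed by GST-GRP with red probe in fluorescence polarization (mP), controls without enzyme and at zero time.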 Particulars: PI3Kα; read-out: PI3Kα IC50. Type of experiment: biochemical. (In fluorescence polarisation assays a small probe gives low polarisation when free and higher when bound to something large.)
Sequence of PI3K (P42336 whole entry): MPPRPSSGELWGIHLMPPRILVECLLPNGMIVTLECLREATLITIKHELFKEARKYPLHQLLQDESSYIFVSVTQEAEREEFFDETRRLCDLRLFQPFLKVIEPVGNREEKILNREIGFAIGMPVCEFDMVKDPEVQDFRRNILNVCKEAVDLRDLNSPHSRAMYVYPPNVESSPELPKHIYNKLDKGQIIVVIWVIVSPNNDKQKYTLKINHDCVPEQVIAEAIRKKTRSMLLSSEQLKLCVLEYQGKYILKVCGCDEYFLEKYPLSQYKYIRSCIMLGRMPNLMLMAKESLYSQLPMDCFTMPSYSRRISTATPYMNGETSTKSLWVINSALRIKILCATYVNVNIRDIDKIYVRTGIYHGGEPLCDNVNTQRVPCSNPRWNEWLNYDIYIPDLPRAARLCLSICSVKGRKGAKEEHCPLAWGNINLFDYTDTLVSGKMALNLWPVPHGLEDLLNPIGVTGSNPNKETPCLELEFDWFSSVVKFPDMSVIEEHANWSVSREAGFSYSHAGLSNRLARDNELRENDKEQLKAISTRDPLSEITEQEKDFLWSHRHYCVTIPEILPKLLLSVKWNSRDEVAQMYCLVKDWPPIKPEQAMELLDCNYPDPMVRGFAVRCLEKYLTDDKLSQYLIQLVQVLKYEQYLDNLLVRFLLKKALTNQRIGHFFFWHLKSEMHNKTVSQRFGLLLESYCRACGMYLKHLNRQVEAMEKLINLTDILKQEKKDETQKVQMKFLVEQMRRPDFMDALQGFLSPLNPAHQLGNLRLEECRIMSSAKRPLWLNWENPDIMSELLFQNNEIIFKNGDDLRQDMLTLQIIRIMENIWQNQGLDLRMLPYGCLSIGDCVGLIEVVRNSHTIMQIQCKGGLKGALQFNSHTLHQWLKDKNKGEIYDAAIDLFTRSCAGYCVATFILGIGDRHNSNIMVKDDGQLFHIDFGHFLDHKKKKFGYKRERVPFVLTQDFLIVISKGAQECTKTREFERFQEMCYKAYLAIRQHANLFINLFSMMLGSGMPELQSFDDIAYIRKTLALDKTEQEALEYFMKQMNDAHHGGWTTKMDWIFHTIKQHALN
Sequence of PI3K (P27986 whole entry partner): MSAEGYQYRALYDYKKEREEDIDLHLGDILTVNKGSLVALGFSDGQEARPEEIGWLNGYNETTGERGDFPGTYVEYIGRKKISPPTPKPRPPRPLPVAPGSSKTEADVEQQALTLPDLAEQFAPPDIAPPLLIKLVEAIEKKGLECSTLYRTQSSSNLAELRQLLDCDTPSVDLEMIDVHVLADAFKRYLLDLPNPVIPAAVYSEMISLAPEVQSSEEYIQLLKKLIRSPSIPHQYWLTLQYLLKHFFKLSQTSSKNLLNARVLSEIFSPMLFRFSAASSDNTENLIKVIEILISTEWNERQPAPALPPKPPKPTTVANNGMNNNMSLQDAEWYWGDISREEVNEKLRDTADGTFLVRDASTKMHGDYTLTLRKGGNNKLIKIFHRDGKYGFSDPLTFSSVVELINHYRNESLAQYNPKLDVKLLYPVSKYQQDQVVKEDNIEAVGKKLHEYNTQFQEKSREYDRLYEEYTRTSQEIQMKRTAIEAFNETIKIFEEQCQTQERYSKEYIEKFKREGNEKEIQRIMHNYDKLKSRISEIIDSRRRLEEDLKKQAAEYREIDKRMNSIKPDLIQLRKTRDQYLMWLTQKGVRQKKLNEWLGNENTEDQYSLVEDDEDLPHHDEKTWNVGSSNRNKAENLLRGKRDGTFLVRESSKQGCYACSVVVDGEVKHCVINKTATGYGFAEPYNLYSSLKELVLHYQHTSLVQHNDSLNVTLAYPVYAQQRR

`CNS(=O)(=O)Nc1ccc(-c2nc(N3CCOCC3)c3cnn(C4CCN(C(=O)OC(C)(C)C)CC4)c3n2)cc1` [Compound 951, tert-butyl 4-(6-{4-[(methylsulfamoyl)amino]phenyl}-4-morpholin-4-yl-1H-pyrazolo[3,4-d]pyrimidin-1-yl)piperidine-1-carboxylate]: the IC50 in the experiment with breast line MDA468 (Homo sapiens, 72 h) came out at 7800 nM; with prostate line LNCap (Homo sapiens, LNCaP, 72 h) it was 4000 nM.
Regarding `Nc1cccc(-c2nc(N3CCOCC3)c3cnn(-c4ccccc4)c3n2)n1` [Compound 439, 6-(4-morpholin-4-yl-1-phenyl-1H-pyrazolo[3,4-d]pyrimidin-6-yl)pyridin-2-amine], the half-inhibitory concentration (IC50) in the experiment on breast line MDA468 (Homo sapiens, 72 h) is 60000 nM; with prostate line LNCap (Homo sapiens, LNCaP, 72 h), 60000 nM.
As to `O=CNc1cccc(-c2nc(N3CCOCC3)c3cnn(C4CCN(Cc5ccccc5)CC4)c3n2)c1` [Example 77], the IC50 in the experiment with breast line MDA468 (Homo sapiens, 72 h) was found to be 9000 nM; with prostate line LNCap (Homo sapiens, LNCaP, 72 h), 5100 nM.
On the same counts, the results for `NCCC(=O)Nc1ccc(-c2nc(N3CCOCC3)c3cnn(-c4ccccc4)c3n2)cc1` [Compound 134] are 1300 nM and 1200 nM.
For the compound `Nc1cccc(-c2nc(N3CCOCC3)c3cnn(-c4ccccc4)c3n2)n1` [Compound 683, 6-(4-morpholin-4-yl-1-phenyl-1H-pyrazolo[3,4-d]pyrimidin-6-yl)pyridin-2-amine], the 50% inhibitory concentration (IC50) with breast line MDA468 and in the experiment on prostate line LNCap was more than 60000 nM each time.
Take `COC(=O)Nc1ccc(-c2nc(N3CCOCC3)c3cnn(C4CCN(C(=O)OC)CC4)c3n2)cc1` [Compound 739, methyl 4-(6-{4-[(methoxycarbonyl)amino]phenyl}-4-morpholin-4-yl-1H-pyrazolo[3,4-d]pyrimidin-1-yl)piperidine-1-carboxylate]: the IC50 with breast line MDA468 (Homo sapiens, 72 h) worked out at 1750 nM; with prostate line LNCap (Homo sapiens, LNCaP, 72 h) it was 400 nM.
Taken in the same sequence, the figures for `O=CNc1ccc(-c2nc(N3CCOCC3)c3cnn(C4CCN(Cc5ccccc5)CC4)c3n2)cc1` [Compound 485, N-{4-[1-(1-benzylpiperidin-4-yl)-4-morpholin-4-yl-1H-pyrazolo[3,4-d]pyrimidin-6-yl]phenyl}formamide] were 4500 nM and 1400 nM.
On the same counts, the results for `CN(C)CC(=O)Nc1ccc(-c2nc(N3CCOCC3)c3cnn(-c4ccccc4)c3n2)cc1` [Compound 135] are 1200 nM and 3400 nM.
Taken in the same sequence, the figures for `c1ccc(-n2ncc3c(N4CCOCC4)nc(-c4ccc5[nH]ccc5c4)nc32)cc1` [Compound 110] were 5500 nM and 2000 nM.
Take `CC(=O)N(C)c1ccc(-c2nc(N3CCOCC3)c3cnn(-c4ccccc4)c3n2)cc1` [Compound 149, N-methyl-N-[4-(4-morpholin-4-yl-1-phenyl-1H-pyrazolo[3,4-d]pyrimidin-6-yl)phenyl]acetamide]: the IC50 was 40000 nM with breast line MDA468 (Homo sapiens, 72 h) and 4500 nM in the experiment with prostate line LNCap (Homo sapiens, LNCaP, 72 h).
Taken in the same sequence, the figures for `CC(=O)Nc1ccc(-c2nc(N3CCOCC3)c3cnn(C4CCN(Cc5ccccc5)CC4)c3n2)cc1` [Example 80, N-{4-[1-(1-benzylpiperidin-4-yl)-4-morpholin-4-yl-1H-pyrazolo[3,4-d]pyrimidin-6-yl]phenyl}acetamide] were 2300 nM and 450 nM.
On the same counts, the results for `c1cc2cc(-c3nc(N4CCOCC4)c4cnn([C@@H]5CCCNC5)c4n3)ccc2[nH]1` [Compound 168] are 10000 nM and 3400 nM.
Taken in the same sequence, the figures for `Oc1ccc(-c2nc(N3CCOCC3)c3cnn(C4CCN(Cc5ccccc5)CC4)c3n2)cc1` [Compound 486, 4-[1-(1-benzylpiperidin-4-yl)-4-morpholin-4-yl-1H-pyrazolo[3,4-d]pyrimidin-6-yl]phenol] were 4000 nM and 1400 nM.
With `Nc1ncc(-c2nc(N3CCOCC3)c3cnn(C4CCN(Cc5ccccc5)CC4)c3n2)cn1` [Compound 191], the IC50 stood at 400 nM in the experiment on breast line MDA468 (Homo sapiens, 72 h) and 80 nM in the experiment with prostate line LNCap (Homo sapiens, LNCaP, 72 h).
Taken in the same sequence, the figures for `Nc1ccc(-c2nc(N3CCOCC3)c3cnn(-c4ccccc4)c3n2)cn1` [Example 129, 5-(4-morpholin-4-yl-1-phenyl-1H-pyrazolo[3,4-d]pyrimidin-6-yl)pyridin-2-amine] were 1300 nM and 410 nM.
Taken in the same sequence, the figures for `COCCC(=O)Nc1ccc(-c2nc(N3CCOCC3)c3cnn(-c4ccccc4)c3n2)cc1` [Compound 138] were 6500 nM and 4900 nM.
On the same counts, the results for `Oc1ccc(-c2nc(N3CCOCC3)c3cnn(C4CCN(Cc5ccccc5)CC4)c3n2)cn1` [Compound 192] are 40000 nM and 16000 nM.
Turning to `Oc1ccc(-c2nc(N3CCOCC3)c3cnn(C4CCN(Cc5ccccc5)CC4)c3n2)cc1` [Compound 232, 4-[1-(1-benzylpiperidin-4-yl)-4-morpholin-4-yl-1H-pyrazolo[3,4-d]pyrimidin-6-yl]phenol], the IC50 in the experiment with breast line MDA468 (Homo sapiens, 72 h) amounted to 4000 nM; in the experiment on prostate line LNCap (Homo sapiens, LNCaP, 72 h) it was 1400 nM.
On the same counts, the results for `CNC(=S)Nc1ccc(-c2nc(N3CCOCC3)c3cnn(C4CCN(Cc5cccnc5)CC4)c3n2)cc1` [Compound 622, 1-methyl-3-(4-{4-morpholin-4-yl-1-[1-(pyridin-3-ylmethyl)piperidin-4-yl]-1H-pyrazolo[3,4-d]pyrimidin-6-yl}phenyl)thiourea] are 500 nM and 70 nM.
On the same counts, the results for `O=C(c1cccnc1)N1CCC(n2ncc3c(N4CCOCC4)nc(-c4cccc(O)c4)nc32)CC1` [Compound 24, 3-{4-morpholin-4-yl-1-[1-(pyridin-3-ylcarbonyl)piperidin-4-yl]-1H-pyrazolo[3,4-d]pyrimidin-6-yl}phenol] are 700 nM and 200 nM.
For the compound `COC(=O)Nc1ccc(-c2nc(N3CCOCC3)c3cnn(C4CCN(C(=O)c5ccc(C#N)cc5)CC4)c3n2)cc1` [Example 447, methyl (4-{1-[1-(4-cyanobenzoyl)piperidin-4-yl]-4-morpholin-4-yl-1H-pyrazolo[3,4-d]pyrimidin-6-yl}phenyl)carbamate], the IC50 worked out at 1200 nM in the experiment on breast line MDA468 (Homo sapiens, 72 h) and 600 nM with prostate line LNCap (Homo sapiens, LNCaP, 72 h).
With `COC(=O)N1CCC(n2ncc3c(N4CCOCC4)nc(-c4ccc(NC(=O)Nc5ccc(CO)cc5)cc4)nc32)CC1` [Compound 912, methyl 4-{6-[4-({[4-(hydroxymethyl)phenyl]carbamoyl}amino)phenyl]-4-morpholin-4-yl-1H-pyrazolo[3,4-d]pyrimidin-1-yl}piperidine-1-carboxylate], the IC50 is less than 0.8 nM with breast line MDA468 (Homo sapiens, 72 h) and less than 0.8 nM in the experiment with prostate line LNCap (Homo sapiens, LNCaP, 72 h).
Take `Nc1cccc(-c2nc(N3CCOCC3)c3cnn(C4CCN(Cc5ccccc5)CC4)c3n2)c1` [Example 60]: the IC50 in the experiment on breast line MDA468 (Homo sapiens, 72 h) is 5500 nM; in the experiment on prostate line LNCap (Homo sapiens, LNCaP, 72 h) it was 2000 nM.
Taken in the same sequence, the figures for `CN(C)C(=O)c1ccc(-c2nc(N3CCOCC3)c3cnn(C4CCN(Cc5ccccc5)CC4)c3n2)cc1` [Example 71] were 13000 nM and 10000 nM.
On the same counts, the results for `N#CN=C(N)Nc1ccc(-c2nc(N3CCOCC3)c3cnn(C4CCN(Cc5cccnc5)CC4)c3n2)cc1` [Example 406, 2-cyano-1-(4-{4-morpholin-4-yl-1-[1-(pyridin-3-ylmethyl)piperidin-4-yl]-1H-pyrazolo[3,4-d]pyrimidin-6-yl}phenyl)guanidine] are 1100 nM and 1400 nM.
Turning to `Nc1ccc(-c2nc(N3CCOCC3)c3cnn(C4CCN(Cc5ccccc5)CC4)c3n2)cn1` [Compound 155], the IC50 with breast line MDA468 (Homo sapiens, 72 h) amounted to 1000 nM; in the experiment with prostate line LNCap (Homo sapiens, LNCaP, 72 h) it was 100 nM.
`COC(=O)Nc1ccc(-c2nc(N3CCOCC3)c3cnn(-c4ccccc4)c3n2)cc1` [Example 101, methyl [4-(4-morpholin-4-yl-1-phenyl-1H-pyrazolo[3,4-d]pyrimidin-6-yl)phenyl]carbamate]: the half-inhibitory concentration (IC50) in the experiment on breast line MDA468 (Homo sapiens, 72 h) was found to be 22000 nM; in the experiment with prostate line LNCap (Homo sapiens, LNCaP, 72 h), 10000 nM.
Taken in the same sequence, the figures for `O=CNc1ccc(-c2nc(N3CCOCC3)c3cnn(C4CCN(Cc5ccccc5)CC4)c3n2)cc1` [Compound 231, N-{4-[1-(1-benzylpiperidin-4-yl)-4-morpholin-4-yl-1H-pyrazolo[3,4-d]pyrimidin-6-yl]phenyl}formamide] were 4500 nM and 1400 nM.
Regarding `c1cc2cc(-c3nc(N4CCOCC4)c4cnn([C@H]5CCCNC5)c4n3)ccc2[nH]1` [Compound 170, 6-(1H-indol-5-yl)-4-morpholin-4-yl-1-[(3S)-piperidin-3-yl]-1H-pyrazolo[3,4-d]pyrimidine], the IC50 with breast line MDA468 (Homo sapiens, 72 h) came to 12000 nM; in the experiment with prostate line LNCap (Homo sapiens, LNCaP, 72 h), 3300 nM.
On the same counts, the results for `COCC(=O)N1CCC(n2ncc3c(N4CCOCC4)nc(-c4cccc(O)c4)nc32)CC1` [Example 30] are 1400 nM and 500 nM.
On the same counts, the results for `COC(=O)N1CCC(n2ncc3c(N4CCOCC4)nc(-c4ccc(NC(=O)Nc5ccncc5)cc4)nc32)CC1` [Compound 738, methyl 4-(4-morpholin-4-yl-6-{4-[(pyridin-4-ylcarbamoyl)amino]phenyl}-1H-pyrazolo[3,4-d]pyrimidin-1-yl)piperidine-1-carboxylate] are less than 27 nM and less than 27 nM.
On the same counts, the results for `Nc1ccc(-c2nc(N3CCOCC3)c3cnn(-c4ccccc4)c3n2)nc1` [Compound 438, 6-(4-morpholin-4-yl-1-phenyl-1H-pyrazolo[3,4-d]pyrimidin-6-yl)pyridin-3-amine] are 60000 nM and 7000 nM.
With `Cn1ncc2c(N3CCC(n4c(=O)[nH]c5ccccc54)CC3)nc(-c3ccccc3)nc21` [Example 12], the 50% inhibitory concentration (IC50) turned out to be 12000 nM in the experiment on breast line MDA468 (Homo sapiens, 72 h) and 750 nM with prostate line LNCap (Homo sapiens, LNCaP, 72 h).
For the compound `O=C(NCCF)Nc1ccc(-c2nc(N3CCOCC3)c3cnn(C4CCN(C(=O)c5ccccc5)CC4)c3n2)cc1` [Example 380, 1-{4-[1-(1-benzoylpiperidin-4-yl)-4-morpholin-4-yl-1H-pyrazolo[3,4-d]pyrimidin-6-yl]phenyl}-3-(2-fluoroethyl)urea], the IC50 was 27 nM with prostate line LNCap (Homo sapiens, LNCaP, 72 h) and 454 nM on PI3K.
